# From US12091410B2, “Heterocyclic compound” (Takeda Pharmaceutical Company Limited, priority 2018, dated 2024)
# Molecular target: T1, human orexin type 2 receptor (Homo sapiens, UniProt O43614)
# T1 construct: expressed in transfected cells
# T1 sequence (O43614 1-444): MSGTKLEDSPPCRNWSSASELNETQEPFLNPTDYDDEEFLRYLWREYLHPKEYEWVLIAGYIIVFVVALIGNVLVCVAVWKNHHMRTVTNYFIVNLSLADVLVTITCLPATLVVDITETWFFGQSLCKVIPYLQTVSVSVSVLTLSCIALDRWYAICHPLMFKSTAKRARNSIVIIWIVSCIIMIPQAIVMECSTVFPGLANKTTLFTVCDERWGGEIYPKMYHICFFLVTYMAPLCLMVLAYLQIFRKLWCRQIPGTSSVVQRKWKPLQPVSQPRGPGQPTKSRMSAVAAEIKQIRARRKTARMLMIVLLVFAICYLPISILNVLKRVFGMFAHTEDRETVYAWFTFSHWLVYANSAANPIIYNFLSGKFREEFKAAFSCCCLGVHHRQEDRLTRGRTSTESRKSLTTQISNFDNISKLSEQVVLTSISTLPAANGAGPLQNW
# Test: Measurement of orexin type 2 receptor agonist activity (calcium fluorescence, Fluo-4 AM, CHO cells forcibly expressing human OX2 receptor)
# Assay type: cell-based
# Settings: test compound 3 μM, DMSO = 0%, orexin A (human) 10 nM = 100%
# Excerpt: To obtain a cell clone stably expressing human orexin type 2 receptor, human orexin type 2 receptor cDNA was inserted into pcDNA3.1(+) plasmid vector (Invitrogen), and a plasmid DNA for expression of human orexin type 2 receptor (pcDNA3.1(+)/hOX2R) was cloned. The plasmid DNA was introduced into CHO-dhfr cell by an electroporation method, and human orexin type 2 receptor expressing clone cells were obtained by limiting dilution method by using G418 drug resistance as a selection marker.
# CHO cells forcibly expressing human OX2 receptor were seeded in each well of 384 well black transparent bottom plate (BD Falcon) at 7,500 cells/well, and cultured for one day in a 5% CO2 incubator at 37° C. After removal of the medium in the cell plate, assay buffer A containing a calcium indicator (HBSS (Thermo Fisher Scientific), 20 mM HEPES (Thermo Fisher Scientific), 0.1% BSA (Sigma-Aldrich), 2.5 μg/mL Fluo-4 AM (DOJINDO Chemical), 0.08% Pluronic F127 (DOJINDO Chemical), 1.25 mM probenecid (DOJINDO Chemical)) was added at 30 μL/well. The plate was stood for 30 min in a 5% CO2 incubator at 37° C., and further stood at room temperature for 30 min. A test compound prepared by diluting with assay buffer B (HBSS, 20 mM HEPES, 0.1% BSA) was added at 10 μL/well, and the fluorescence value was measured by FDSSpCELL (Hamamatsu Photonics K. K.) every one sec for 1 min, and thereafter every two sec for 1 min 40 sec. The activity (%) of the test compound was calculated assuming that variation in the fluorescence value when DMSO was added instead of the test compound was 0%, and variation in the fluorescence value when orexin A (human) (PEPTIDE INSTITUTE, INC.) was added at the final concentration of 10 nM was 100%.
row,SMILES,"OX2R agonist activity (3 μM, %) [%]"
1,"Cc1nn2c(c1Cl)CC[C@H](NS(C)(=O)=O)[C@@H]2COC1CCN(c2ncc(F)cn2)CC1 (racemic) [Example 15, rac-N-[(6S,7R)-3-chloro-7-({[1-(5-fluoropyrimidin-2-yl)piperidin-4-yl]oxy}methyl)-2-methyl-4,5,6,7-tetrahydropyrazolo[1,5-a]pyridin-6-yl]methanesulfonamide]",91
2,"CC(C)n1cc2c(n1)[C@@H](Cc1cccc(-c3ccccc3)c1)[C@@H](NS(C)(=O)=O)CC2 (racemic) [Example 16, rac-N-[(6S,7S)-7-[([1,1′-biphenyl]-3-yl)methyl]-2-(propan-2-yl)-4,5,6,7-tetrahydro-2H-indazol-6-yl]methanesulfonamide]",84
3,"Cc1nc2c(s1)CC[C@H](NS(C)(=O)=O)[C@@H]2Cc1cccc(-c2ccccc2)c1 (racemic) [Example 17, rac-N-{(4S,5S)-4-[([1,1′-biphenyl]-3-yl)methyl]-2-methyl-4,5,6,7-tetrahydro-1,3-benzothiazol-5-yl}methanesulfonamide]",62
4,"CS(=O)(=O)N[C@H]1CCc2cccnc2[C@H]1Cc1cccc(-c2ccccc2)c1 (racemic) [Example 22, rac-N-{(7S,8S)-8-[([1,1′-biphenyl]-3-yl)methyl]-5,6,7,8-tetrahydroquinolin-7-yl}methanesulfonamide]",63
5,"CC(C)c1cc2n(n1)[C@@H](Cc1cccc(-c3ccccc3)c1)[C@@H](NS(C)(=O)=O)CC2 (racemic) [Example 23, rac-N-[(6S,7S)-7-[([1,1′-biphenyl]-3-yl)methyl]-2-(propan-2-yl)-4,5,6,7-tetrahydropyrazolo[1,5-a]pyridin-6-yl]methanesulfonamide]",109
6,"CCc1cc2n(n1)[C@@H](COC1CCN(c3ncccn3)CC1)[C@@H](NS(C)(=O)=O)CC2 (racemic) [Example 28, rac-N-[(6S,7R)-2-ethyl-7-({[1-(pyrimidin-2-yl)piperidin-4-yl]oxy}methyl)-4,5,6,7-tetrahydropyrazolo[1,5-a]pyridin-6-yl]methanesulfonamide]",102
7,"CC(C)c1cc2n(n1)[C@@H](COC1CCN(c3ccccc3F)CC1)[C@@H](NS(C)(=O)=O)CC2 (racemic) [Example 29, rac-N-[(6S,7R)-7-({[1-(2-fluorophenyl)piperidin-4-yl]oxy}methyl)-2-(propan-2-yl)-4,5,6,7-tetrahydropyrazolo[1,5-a]pyridin-6-yl]methanesulfonamide]",80
8,"CCc1nn2c(c1Cl)CC[C@H](NS(C)(=O)=O)[C@@H]2COC1CCN(c2ncccn2)CC1 (racemic) [Example 32, rac-N-[(6S,7R)-3-chloro-2-ethyl-7-({[1-(pyrimidin-2-yl)piperidin-4-yl]oxy}methyl)-4,5,6,7-tetrahydropyrazolo[1,5-a]pyridin-6-yl]methanesulfonamide]",92
9,"CC(O)c1cc2n(n1)C(Cc1cccc(-c3ccccc3)c1)C(NS(C)(=O)=O)CC2 (racemic) [Example 36, N-[(6SR,7SR)-7-[([1,1′-biphenyl]-3-yl)methyl]-2-(1-hydroxyethyl)-4,5,6,7-tetrahydropyrazolo[1,5-a]pyridin-6-yl]methanesulfonamide]",105
10,"CCc1cc2n(n1)[C@@H](COC1CCN(c3ncc(F)c(OC)n3)CC1)[C@@H](NS(C)(=O)=O)CC2 (racemic) [Example 40, rac-N-[(6S,7R)-2-ethyl-7-({[1-(5-fluoro-4-methoxypyrimidin-2-yl)piperidin-4-yl]oxy}methyl)-4,5,6,7-tetrahydropyrazolo[1,5-a]pyridin-6-yl]methanesulfonamide]",96
11,"CCc1cc2n(n1)[C@@H](COC1CCN(c3ncc(F)c(C)n3)CC1)[C@@H](NS(C)(=O)=O)CC2 (racemic) [Example 41, rac-N-[(6S,7R)-2-ethyl-7-({[1-(5-fluoro-4-methylpyrimidin-2-yl)piperidin-4-yl]oxy}methyl)-4,5,6,7-tetrahydropyrazolo[1,5-a]pyridin-6-yl]methanesulfonamide]",80
12,"CCc1cc2n(n1)[C@@H](COC1CCN(c3ccccn3)CC1)[C@@H](NS(C)(=O)=O)CC2 (racemic) [Example 42, rac-N-[(6S,7R)-2-ethyl-7-({[1-(pyridin-2-yl)piperidin-4-yl]oxy}methyl)-4,5,6,7-tetrahydropyrazolo[1,5-a]pyridin-6-yl]methanesulfonamide]",80
13,"CC(C)n1cc2c(n1)[C@@H](COC1CCN(c3ncc(F)cn3)CC1)[C@@H](NS(C)(=O)=O)CC2 (racemic) [Example 44, rac-N-[(6S,7S)-7-({[1-(5-fluoropyrimidin-2-yl)piperidin-4-yl]oxy}methyl)-2-(propan-2-yl)-4,5,6,7-tetrahydro-2H-indazol-6-yl]methanesulfonamide]",94
14,"CCc1cc2n(n1)[C@@H](COC1CCN(c3ncccn3)CC1)[C@@H](NS(=O)(=O)CC)CC2 (racemic) [Example 45, rac-N-[(6S,7R)-2-ethyl-7-({[1-(pyrimidin-2-yl)piperidin-4-yl]oxy}methyl)-4,5,6,7-tetrahydropyrazolo[1,5-a]pyridin-6-yl]ethanesulfonamide]",101
15,"CC(C)n1cc2c(n1)[C@@H](COC1CCN(c3ncccn3)CC1)[C@@H](NS(C)(=O)=O)CC2 (racemic) [Example 47, rac-N-[(6S,7S)-2-(propan-2-yl)-7-({[1-(pyrimidin-2-yl)piperidin-4-yl]oxy}methyl)-4,5,6,7-tetrahydro-2H-indazol-6-yl]methanesulfonamide]",98
16,"CC(O)c1nn2c(c1Cl)CCC(NS(C)(=O)=O)C2COC1CCN(c2ncccn2)CC1 (racemic) [Example 50, N-[(6SR,7RS)-3-chloro-2-(1-hydroxyethyl)-7-({[1-(pyrimidin-2-yl)piperidin-4-yl]oxy}methyl)-4,5,6,7-tetrahydropyrazolo[1,5-a]pyridin-6-yl]methanesulfonamide]",92
17,"CCc1nn2c(c1Br)CC[C@H](NS(C)(=O)=O)[C@@H]2COC1CCN(c2ncc(F)cn2)CC1 (racemic) [Example 52, rac-N-[(6S,7R)-3-bromo-2-ethyl-7-({[1-(5-fluoropyrimidin-2-yl)piperidin-4-yl]oxy}methyl)-4,5,6,7-tetrahydropyrazolo[1,5-a]pyridin-6-yl]methanesulfonamide]",95
18,"Cc1ccc2c(n1)[C@@H](Cc1cccc(-c3ccccc3)c1)[C@@H](NS(C)(=O)=O)CC2 (racemic) [Example 62, rac-N-{(7S,8S)-8-[([1,1′-biphenyl]-3-yl)methyl]-2-methyl-5,6,7,8-tetrahydroquinolin-7-yl}methanesulfonamide]",72
19,"CC(C)c1cc2n(n1)[C@@H](COC1CCN(c3ncc(F)cn3)CC1)[C@@H](NS(C)(=O)=O)CC2 (relative stereo) [Example 24, rel-N-[(6S,7R)-7-({[1-(5-fluoropyrimidin-2-yl)piperidin-4-yl]oxy}methyl)-2-(propan-2-yl)-4,5,6,7-tetrahydropyrazolo[1,5-a]pyridin-6-yl]methanesulfonamide]",111
20,"CCc1cc2n(n1)[C@@H](COC1CCN(c3ncc(F)cn3)CC1)[C@@H](NS(C)(=O)=O)CC2 (relative stereo) [Example 33, rel-N-[(6S,7R)-2-ethyl-7-({[1-(5-fluoropyrimidin-2-yl)piperidin-4-yl]oxy}methyl)-4,5,6,7-tetrahydropyrazolo[1,5-a]pyridin-6-yl]methanesulfonamide]",91
21,"CC(C)c1cc2n(n1)[C@@H](COC1CCN(c3ncccn3)CC1)[C@@H](NS(C)(=O)=O)CC2 (relative stereo) [Example 56, rel-N-[(6S,7R)-2-(propan-2-yl)-7-({[1-(pyrimidin-2-yl)piperidin-4-yl]oxy}methyl)-4,5,6,7-tetrahydropyrazolo[1,5-a]pyridin-6-yl]methanesulfonamide]",100
22,"Cc1cn2c(n1)[C@@H](Cc1cccc(-c3cccc(F)c3)c1)[C@@H](NS(C)(=O)=O)CC2 (relative stereo) [Example 57, rel-N-{(7S,8S)-8-[(3′-fluoro[1,1′-biphenyl]-3-yl)methyl]-2-methyl-5,6,7,8-tetrahydroimidazo[1,2-a]pyridin-7-yl}methanesulfonamide]",94
